Data set [1] can be described thus: particle size distribution analysis (volume distribution) by laser diffraction of aqueous dispersion. In kind it is physicochemical. An excerpt:
The D10, D50 and D90 represent the median or the 10th, 50th, and the 90th percentile of the particle size distribution (volume distribution), respectively. That is, the D50 (D10/D90) is a value on the distribution such that 50% (10%/90%) of the particles have a particle size of this value or less. The volume averaged particle size distribution may be measured with an aqueous dispersion of the M^n+(HDO)n by techniques known to the skilled artisan, e.g. by laser diffraction techniques.
Furthermore, a particle size distribution analysis (volume distribution) was performed using a conventional laser diffraction apparatus (Mastersizer® 2000, Fa. Malvern Instruments). For the measurement, 1 g of Cu(HDO)2 was dispersed in 100 ml of water sample and 1 ml of a solution (1% by weight) of a nonionic surfactant (polyethylene glycole p-(1,1,3,3-tetramethylbutyl)-phenyl ether, around 9-10 ethylene oxide groups). […]

The conditions of data set [2]: cited from earlier work.
Where [3] appears, read: dispersion time 1 min, 1 g in 100 ml water with nonionic surfactant.

In data set [1] (after 10 min dispersion), `[Cu+2].[O-]/N=[N+](\[O-])C1CCCCC1.[O-]/N=[N+](\[O-])C1CCCCC1` [Comparative Example, reference compound] registered a D10 value of 2 μm, a D50 of 15 μm and a D90 of 79 μm. In data set [1] (after 30 min dispersion), this compound yielded a D10 value of 2 μm, a D50 of 12 μm and a D90 of 53 μm. In data set [1] (setting [3]), the D10 value came out at 3 μm, the D50 is 23 μm and the D90 worked out at 306 μm.
As to `O=NN([O-])C1CCCCC1.O=NN([O-])C1CCCCC1.[Cu+2]` [Cu(HDO)2, Cu-salt of N′-hydroxy-N-cyclohexyldiazenium oxide], in data set [2], the solubility in water result is recorded as “around 30 ppm”. Besides, the D10 value in data set [1] (after 10 min dispersion) is 14 μm; in data set [1] (after 30 min dispersion), 12 μm; in data set [1] (setting [3]), 16 μm. For the same compound, the results for the D50 in data set [1] (after 10 min dispersion), in data set [1] (after 30 min dispersion) and in data set [1] (setting [3]) were 45 μm, 41 μm and 49 μm, respectively. The values for the D90 in data set [1] (after 10 min dispersion), in data set [1] (after 30 min dispersion) and in data set [1] (setting [3]) were 108 μm, 93 μm and 140 μm, respectively.

Source of the values: patent publication US20110257436A1, “PROCESS FOR THE MANUFACTURE OF EASILY DISPERSIBLE, SOLID N'-HYDROXY-N-CYCLOHEXYL-DIAZENIUM OXIDE SALTS” (BASF SE, priority 2008, published 2011).
